“And” between values parts separate entries of the source, which are not always exact repeats. Equal values may be shown once. Read-outs that look alike come from different tables or passages of the source.
Tested on: neurons in brain slices
Assay type: cell-based
Settings: for NON-STROKE AVERAGE / surviving neurons, NON-STROKE: non-stroke brain slice; for NON-STROKE AVERAGE / STROKE AVG. / surviving neurons, NON-STROKE / surviving neurons, STROKE: 24 hrs exposure; for NON-STROKE AVERAGE / STROKE AVG.: average neuron count; for STROKE AVG. / surviving neurons, STROKE: stroke brain slice; for surviving neurons, NON-STROKE / surviving neurons, STROKE: single count; for neuroprotective properties: stroke and non-stroke brain slices, result in words
Text: A negative and positive control experiments were also run for comparison. In the positive control, a known neuroprotective gene and reporter gene (i.e., a green fluorescent protein) were shot into the stroke and non-stroke brain slices. In the negative control, only the reporter gene (i.e., a green fluorescent protein) was shot into the stroke and non-stroke brain slices. […]
A negative and positive control experiments were also run for comparison as described above for Example 1. […]
Two sets of brain slices were transfected with a plasmid containing a reporter gene (e.g. a green fluorescent protein). […] One of the sets of brain slices was treated under conditions to simulate stroke, and the other brain slice was a non-stroke control. Survival of neurons in the brain slices, as indicated by expression of the reporter molecule, was examined by direct neuron counts after 24 hrs. exposure to the compound.

NC(C(=O)O)c1nnn[nH]1 (racemic) [(RS)-(Tetrazol-5-yl)glycine]
NON-STROKE AVERAGE (0.781 uM): 25.6
STROKE AVG. (0.781 uM): 13.2
NON-STROKE AVERAGE (1.562 uM): 28.8
STROKE AVG. (1.562 uM): 17.2
NON-STROKE AVERAGE (3.125 uM): 50.4
STROKE AVG. (3.125 uM): 28.2
NON-STROKE AVERAGE (6.25 uM): 94.8
STROKE AVG. (6.25 uM): 58.8
NON-STROKE AVERAGE (12.5 uM): 65.2
surviving neurons, NON-STROKE (12.5 uM): 71 neurons and 61 neurons and 75 neurons and 56 neurons and 63 neurons
STROKE AVG. (12.5 uM): 56.6
NON-STROKE AVERAGE (25 uM): 78
STROKE AVG. (25 uM): 53.2
NON-STROKE AVERAGE (50 uM): 68.8
STROKE AVG. (50 uM): 89
NON-STROKE AVERAGE (100 uM): 73.6
surviving neurons, NON-STROKE (100 uM): 72 neurons and 87 neurons and 64 neurons and 62 neurons and 83 neurons
STROKE AVG. (100 uM): 79.6
surviving neurons, STROKE (100 uM): 95 neurons and 76 neurons and 87 neurons and 66 neurons and 74 neurons
neuroprotective properties: exhibits neuroprotective properties

CC=C(C)C(=O)OC1CCC2(C)C3CCC4[C@]5(O)CC(O)[C@@]6(O)C(CN7CC(C)CCC7[C@@]6(C)O)[C@]5(O)C[C@@]42O[C@]13O (stereo partly drawn) [Cevadine, (Z)-4α,9-Epoxycevane-3β,4,12,14,16β,17,20-heptol 3-(2-methyl-2-butenoate)]
NON-STROKE AVERAGE (0.781 uM): 26.25
STROKE AVG. (0.781 uM): 9.5
NON-STROKE AVERAGE (1.562 uM): 33.2
STROKE AVG. (1.562 uM): 9
NON-STROKE AVERAGE (3.125 uM): 25.6
STROKE AVG. (3.125 uM): 6.4
surviving neurons, STROKE (3.125 uM): 9 neurons and 5 neurons and 6 neurons and 7 neurons
NON-STROKE AVERAGE (6.25 uM): 27
STROKE AVG. (6.25 uM): 8.6
NON-STROKE AVERAGE (12.5 uM): 64
STROKE AVG. (12.5 uM): 38.5
NON-STROKE AVERAGE (25 uM): 93.6
STROKE AVG. (25 uM): 126
NON-STROKE AVERAGE (50 uM): 118
STROKE AVG. (50 uM): 86.6
NON-STROKE AVERAGE (100 uM): 73
STROKE AVG. (100 uM): 70
surviving neurons, STROKE (100 uM): 53 neurons and 78 neurons and 77 neurons and 56 neurons and 86 neurons
neuroprotective properties: exhibits neuroprotective properties

COC1C(O)[C@H](O[C@H]2CC[C@]3(C)C4CC[C@]5(C)C(C6=CC(=O)OC6)CC[C@]5(O)C4CC[C@@H]3C2)OC(C)[C@@H]1O (stereo partly drawn) [Neriifolin, (3β,5β)-3-[(6-Deoxy-3-O-methyl-α-L-glucopyranosyl)oxyl]-14-hydroxycard-20(22)-enolide]
NON-STROKE AVERAGE (0.781 uM): 35
STROKE AVG. (0.781 uM): 6.4
NON-STROKE AVERAGE (1.562 uM): 30.4
STROKE AVG. (1.562 uM): 10
NON-STROKE AVERAGE (3.125 uM): 48.2
STROKE AVG. (3.125 uM): 5.8
NON-STROKE AVERAGE (6.25 uM): 61
STROKE AVG. (6.25 uM): 19.8
NON-STROKE AVERAGE (12.5 uM): 29.75
STROKE AVG. (12.5 uM): 36.25
NON-STROKE AVERAGE (25 uM): 60.2
surviving neurons, NON-STROKE (25 uM): 49 neurons and 66 neurons and 82 neurons and 42 neurons and 62 neurons
STROKE AVG. (25 uM): 43.4
NON-STROKE AVERAGE (50 uM): 32.2
STROKE AVG. (50 uM): 17.6
NON-STROKE AVERAGE (100 uM): 15.6
STROKE AVG. (100 uM): 10.6
neuroprotective properties: exhibits neuroprotective properties

O=C1O[C@H]([C@@H](O)CO)C([O-])=C1O.[Na+] [Sodium Ascorbate, Sodium ascorbate, reference compound]
NON-STROKE AVERAGE (0.3125 uM): 9.5
STROKE AVG. (0.3125 uM): 2.5
NON-STROKE AVERAGE (0.625 uM): 12.5
STROKE AVG. (0.625 uM): 0.5
NON-STROKE AVERAGE (1.25 uM): 10.5
STROKE AVG. (1.25 uM): 0.5
NON-STROKE AVERAGE (2.5 uM): 8
STROKE AVG. (2.5 uM): 0.5
NON-STROKE AVERAGE (5 uM): 19.5
STROKE AVG. (5 uM): 1
NON-STROKE AVERAGE (10 uM): 15.5
STROKE AVG. (10 uM): 2
NON-STROKE AVERAGE (25 uM): 12.5
STROKE AVG. (25 uM): 0.5
NON-STROKE AVERAGE (50 uM): 10
STROKE AVG. (50 uM): 2
NON-STROKE AVERAGE (100 uM): 2.5
neuroprotective properties: did not exhibit neuroprotective properties
